Source: publication PMC7615656 (European journal of pharmacology, 2010)

Tests used:
[1] = biological target: recombinant rat α4β3γ2F77I receptors (Rattus norvegicus, UniProt P18508+P28471, F115I); assay: Two-electrode voltage clamp of GABA-induced chloride currents in Xenopus oocytes; assay type: cell-based; settings: 10 μM, ns = not significant
[2] = biological target: recombinant rat α2β3γ2 receptors (Rattus norvegicus, UniProt P18508+P23576); assay: as above; assay type: cell-based
[3] = biological target: recombinant rat α1β3γ2F77I receptors (Rattus norvegicus, UniProt P18508+P62813, F115I); assay: as above; assay type: cell-based; settings: for efficacy (% GABA EC3): α1β3γ2F77I, ns = not significant
[4] = biological target: recombinant rat α2β3γ2F77I receptors (Rattus norvegicus, UniProt P18508+P23576, F115I); assay: as above; assay type: cell-based; settings: for efficacy (% GABA EC3): α2β3γ2F77I, ns = not significant
[5] = biological target: recombinant rat α6β3γ2 receptors (Rattus norvegicus, UniProt P18508+P30191); assay: as above; assay type: cell-based; settings: for efficacy (% GABA EC3): ns = not significant
[6] = biological target: recombinant rat α5β3γ2F77I receptors (Rattus norvegicus, UniProt P18508+P19969, F115I); assay: as above; assay type: cell-based; settings: for efficacy (% GABA EC3): α5β3γ2F77I, ns = not significant
[7] = biological target: recombinant rat α3β3γ2F77I receptors (Rattus norvegicus, UniProt P18508+P20236, F115I); assay: as above; assay type: cell-based; settings: for efficacy (% GABA EC3): α3β3γ2F77I, ns = not significant; for activity at 1 µM / activity at 10 µM: read-out: efficacy (% GABA EC3)
Sequence of recombinant rat α3β3γ2F77I receptors (P20236 29-493): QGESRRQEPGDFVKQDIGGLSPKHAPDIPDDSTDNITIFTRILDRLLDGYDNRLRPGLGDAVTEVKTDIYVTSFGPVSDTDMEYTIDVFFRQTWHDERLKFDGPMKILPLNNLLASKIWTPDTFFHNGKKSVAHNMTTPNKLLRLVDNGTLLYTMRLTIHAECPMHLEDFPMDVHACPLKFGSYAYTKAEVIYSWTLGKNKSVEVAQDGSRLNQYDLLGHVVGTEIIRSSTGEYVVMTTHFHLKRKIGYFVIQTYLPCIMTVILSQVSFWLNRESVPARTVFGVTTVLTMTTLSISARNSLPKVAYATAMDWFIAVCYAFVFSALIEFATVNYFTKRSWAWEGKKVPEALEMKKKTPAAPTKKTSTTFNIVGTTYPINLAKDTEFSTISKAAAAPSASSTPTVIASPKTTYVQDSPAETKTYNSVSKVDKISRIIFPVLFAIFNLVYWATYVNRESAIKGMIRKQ
Sequence of recombinant rat α3β3γ2F77I receptors (P63079 26-473 partner): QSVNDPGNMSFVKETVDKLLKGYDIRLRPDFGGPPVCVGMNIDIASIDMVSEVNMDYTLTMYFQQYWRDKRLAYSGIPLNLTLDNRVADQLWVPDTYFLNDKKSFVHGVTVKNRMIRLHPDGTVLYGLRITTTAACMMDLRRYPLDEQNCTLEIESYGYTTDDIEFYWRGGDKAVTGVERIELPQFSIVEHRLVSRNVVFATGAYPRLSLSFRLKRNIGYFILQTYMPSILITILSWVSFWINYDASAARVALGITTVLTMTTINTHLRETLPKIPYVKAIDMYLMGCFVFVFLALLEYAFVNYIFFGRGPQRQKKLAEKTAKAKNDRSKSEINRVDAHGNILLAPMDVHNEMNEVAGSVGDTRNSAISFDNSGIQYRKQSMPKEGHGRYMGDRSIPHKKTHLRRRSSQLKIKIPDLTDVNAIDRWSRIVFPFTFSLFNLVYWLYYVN
Sequence of recombinant rat α3β3γ2F77I receptors (P18508 39-466 F115I): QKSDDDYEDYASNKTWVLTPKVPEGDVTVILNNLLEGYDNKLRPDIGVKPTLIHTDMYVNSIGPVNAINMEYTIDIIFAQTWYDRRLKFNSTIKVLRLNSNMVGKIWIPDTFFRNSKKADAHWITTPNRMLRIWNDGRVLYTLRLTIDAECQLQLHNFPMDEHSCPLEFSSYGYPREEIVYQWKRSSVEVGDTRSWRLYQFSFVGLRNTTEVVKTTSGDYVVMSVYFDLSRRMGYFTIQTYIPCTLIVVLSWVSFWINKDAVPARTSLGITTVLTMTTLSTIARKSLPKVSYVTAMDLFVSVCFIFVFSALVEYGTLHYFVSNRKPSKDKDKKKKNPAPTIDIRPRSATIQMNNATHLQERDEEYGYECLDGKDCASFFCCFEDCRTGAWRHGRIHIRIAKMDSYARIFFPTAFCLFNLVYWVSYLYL

[8] = biological target: recombinant rat α5β3γ2 receptors (Rattus norvegicus, UniProt P18508+P19969); assay: as above; assay type: cell-based; settings: for efficacy (% GABA EC3): α5β3γ2, ns = not significant
[9] = biological target: recombinant rat α4β3γ2 receptors (Rattus norvegicus, UniProt P18508+P28471); assay: as above; assay type: cell-based; settings: for efficacy (% GABA EC3): ns = not significant
[10] = biological target: recombinant rat α3β3γ2 receptors (Rattus norvegicus, UniProt P18508+P20236); assay: as above; assay type: cell-based; settings: for efficacy (% GABA EC3): α3β3γ2, ns = not significant
Sequence of recombinant rat α3β3γ2 receptors (P20236 29-493): as the sequence (P20236 29-493) above
Sequence of recombinant rat α3β3γ2 receptors (P63079 26-473 partner): as the sequence (P63079 26-473 partner) above
Sequence of recombinant rat α3β3γ2 receptors (P18508 39-466): as the sequence (P18508 39-466 F115I) above, with I77F counted along it

[11] = biological target: recombinant rat α1β3γ2 receptors (Rattus norvegicus, UniProt P18508+P62813); assay: as above; assay type: cell-based; settings: for efficacy (% GABA EC3): α1β3γ2, ns = not significant
Sequence of recombinant rat α1β3γ2 receptors (P62813 28-455): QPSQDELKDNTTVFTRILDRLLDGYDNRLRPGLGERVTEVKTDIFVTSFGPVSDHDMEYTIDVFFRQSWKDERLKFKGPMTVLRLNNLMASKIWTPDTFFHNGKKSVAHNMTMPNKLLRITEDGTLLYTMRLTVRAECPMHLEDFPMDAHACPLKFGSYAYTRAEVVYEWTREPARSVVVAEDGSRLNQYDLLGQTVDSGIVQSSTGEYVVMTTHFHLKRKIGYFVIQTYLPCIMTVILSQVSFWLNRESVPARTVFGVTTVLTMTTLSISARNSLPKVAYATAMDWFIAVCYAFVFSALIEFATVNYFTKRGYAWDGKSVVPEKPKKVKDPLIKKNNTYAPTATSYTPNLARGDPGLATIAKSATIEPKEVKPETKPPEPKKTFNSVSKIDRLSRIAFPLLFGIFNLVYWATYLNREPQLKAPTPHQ
Sequence of recombinant rat α1β3γ2 receptors (P63079 26-473 partner): as the sequence (P63079 26-473 partner) above
Sequence of recombinant rat α1β3γ2 receptors (P18508 39-466): as the sequence (P18508 39-466 F115I) above, with I77F counted along it

[12] = test system: GABAA receptors containing the γ2F77I mutation; assay: Modulation of GABA EC3 in receptors containing the γ2F77I mutation; assay type: cell-based, rat
[13] = 10 nM, α2β3γ2, ns = not significant
[14] = 100 nM, α2β3γ2, ns = not significant
[15] = 1 μM, α2β3γ2, ns = not significant
[16] = 10 μM, α2β3γ2, ns = not significant
[17] = read-out: efficacy (% GABA EC3)

## CCc1c(C(=O)OC)ncc2[nH]c3cc(OC)c(OC)cc3c12 [DMCM, methyl-6,7-dimethoxy-4-ethyl-β-carboline-3-carboxylate]
[1]
  efficacy (% GABA EC3): 155 ± 9 % GABA EC3
[2]; [13]
  efficacy (% GABA EC3): 71 ± 7 % GABA EC3
[2]; [14]
  efficacy (% GABA EC3): 54 ± 5 % GABA EC3
[2]; [15]
  efficacy (% GABA EC3): 54 ± 3 % GABA EC3
[2]; [16]
  efficacy (% GABA EC3): ns
[3]; 10 nM
  efficacy (% GABA EC3): ns
[3]; 100 nM
  efficacy (% GABA EC3): ns
[3]; 1 μM
  efficacy (% GABA EC3): 123 ± 3 % GABA EC3
[3]; 10 μM
  efficacy (% GABA EC3): 269 ± 3 % GABA EC3
[4]; 10 nM
  efficacy (% GABA EC3): 103 ± 1 % GABA EC3
[4]; 100 nM
  efficacy (% GABA EC3): 111 ± 2 % GABA EC3
[4]; 1 μM
  efficacy (% GABA EC3): 123 ± 1 % GABA EC3
[4]; 10 μM
  efficacy (% GABA EC3): 283 ± 17 % GABA EC3
[5]; 10 nM, α6β3γ2
  efficacy (% GABA EC3): ns
[5]; 100 nM, α6β3γ2
  efficacy (% GABA EC3): 118 ± 9 % GABA EC3
[5]; 1 μM, α6β3γ2
  efficacy (% GABA EC3): 189 ± 21 % GABA EC3
[5]; 10 μM, α6β3γ2
  efficacy (% GABA EC3): 353 ± 22 % GABA EC3
[6]; 10 nM
  efficacy (% GABA EC3): ns
[6]; 100 nM
  efficacy (% GABA EC3): ns
[6]; 1 μM
  efficacy (% GABA EC3): ns
[6]; 10 μM
  efficacy (% GABA EC3): 211 ± 40 % GABA EC3
[7]; 10 nM
  efficacy (% GABA EC3): ns
[7]; 100 nM
  efficacy (% GABA EC3): ns
[7]; 1 μM
  efficacy (% GABA EC3): 126 ± 5 % GABA EC3
[7]; 10 μM
  efficacy (% GABA EC3): 281 ± 26 % GABA EC3
[8]; 10 nM
  efficacy (% GABA EC3): 53 ± 4 % GABA EC3
[8]; 100 nM
  efficacy (% GABA EC3): 52 ± 5 % GABA EC3
[8]; 1 μM
  efficacy (% GABA EC3): 56 ± 6 % GABA EC3
[8]; 10 μM
  efficacy (% GABA EC3): 145 ± 14 % GABA EC3
[9]; 10 nM, α4β3γ2
  efficacy (% GABA EC3): ns
[9]; 100 nM, α4β3γ2
  efficacy (% GABA EC3): 77 ± 1 % GABA EC3
[9]; 1 μM, α4β3γ2
  efficacy (% GABA EC3): 88 ± 2 % GABA EC3
[9]; 10 μM, α4β3γ2
  efficacy (% GABA EC3): 155 ± 18 % GABA EC3
[10]; 10 nM
  efficacy (% GABA EC3): 78 ± 1 % GABA EC3
[10]; 100 nM
  efficacy (% GABA EC3): 69 ± 1 % GABA EC3
[10]; 1 μM
  efficacy (% GABA EC3): 75 ± 3 % GABA EC3
[10]; 10 μM
  efficacy (% GABA EC3): 185 ± 15 % GABA EC3
[11]; 10 nM
  efficacy (% GABA EC3): 87 ± 8 % GABA EC3
[11]; 100 nM
  efficacy (% GABA EC3): 79 ± 11 % GABA EC3
[11]; 1 μM
  efficacy (% GABA EC3): ns
[11]; 10 μM
  efficacy (% GABA EC3): 232 ± 54 % GABA EC3

## CNC(=O)c1cc2c(cn1)[nH]c1ccccc12 [FG7142, N-methyl-β-carboline-3-carboxamide]
[2]; [14]
  efficacy (% GABA EC3): ns
[2]; [15]
  efficacy (% GABA EC3): ns
[2]; [16]
  efficacy (% GABA EC3): ns
[2]; α2β3γ2, control current = 100%
  maximal effect on GABA-induced chloride flux (GABA EC3), % of control current: the reduction was not significant
[3]; [17]
  activity at 0.1 µM: 107 ± 1%
  activity at 1 µM: 111 ± 1%
  activity at 10 µM: 124 ± 3%
[4]; 100 nM
  efficacy (% GABA EC3): ns
[4]; 1 μM
  efficacy (% GABA EC3): ns
[4]; [17]
  activity at 10 µM: 117 ± 4%
[5]; 100 nM, α6β3γ2
  efficacy (% GABA EC3): ns
[5]; 1 μM, α6β3γ2
  efficacy (% GABA EC3): ns
[5]; 10 μM, α6β3γ2
  efficacy (% GABA EC3): ns
[5]; α6β3γ2, control current = 100%
  maximal effect on GABA-induced chloride flux (GABA EC3), % of control current: did not significantly influence
[6]; [17]
  activity at 0.1 µM: 111 ± 2%
  activity at 1 µM: 112 ± 4%
  activity at 10 µM: 122 ± 4%
[7]; 100 nM
  efficacy (% GABA EC3): ns
[7]
  activity at 1 µM: 115 ± 5%
  activity at 10 µM: 126 ± 6%
[8]; 100 nM
  efficacy (% GABA EC3): ns
[8]; 1 μM
  efficacy (% GABA EC3): ns
[8]; [17]
  activity at 10 µM: 84 ± 5%
[9]; 100 nM, α4β3γ2
  efficacy (% GABA EC3): ns
[9]; 1 μM, α4β3γ2
  efficacy (% GABA EC3): ns
[9]; 10 μM, α4β3γ2
  efficacy (% GABA EC3): ns
[9]; α4β3γ2, control current = 100%
  maximal effect on GABA-induced chloride flux (GABA EC3), % of control current: did not significantly influence
[10]; 100 nM
  efficacy (% GABA EC3): ns
[10]; [17]
  activity at 1 µM: 95 ± 2%
  activity at 10 µM: 91 ± 2%
[11]; 100 nM
  efficacy (% GABA EC3): ns
[11]; [17]
  activity at 1 µM: 88 ± 5%
  activity at 10 µM: 92 ± 4%
[12]; GABAA receptors containing the γ2F77I mutation
  maximum stimulation of the GABA-induced current: 126 ± 6%

## COCc1c(C(=O)OC(C)C)ncc2[nH]c3ccc(OCc4ccccc4)cc3c12 [Abecarnil, Isopropyl-6-benzyloxy-4-methoxymethyl-β-carboline-3-carboxylate]
[2]
  EC50: > 1 µM
[2]; [13]
  efficacy (% GABA EC3): ns
[2]; [14]
  efficacy (% GABA EC3): ns
[2]; read-out: efficacy (% GABA EC3), 1 μM, α2β3γ2, ns = not significant
  activity at 1 µM: 261 ± 45%
[2]; read-out: efficacy (% GABA EC3), 10 μM, α2β3γ2, ns = not significant
  activity at 10 µM: 353 ± 62%
[3]; 10 nM
  efficacy (% GABA EC3): ns
[3]; 100 nM
  efficacy (% GABA EC3): ns
[3]; [17]
  activity at 1 µM: 179 ± 25%
  activity at 10 µM: 279 ± 42%
[4]; 10 nM
  efficacy (% GABA EC3): ns
[4]; 100 nM
  efficacy (% GABA EC3): ns
[4]; [17]
  activity at 1 µM: 206 ± 16%
  activity at 10 µM: 420 ± 29%
[5]; 1 μM, α6β3γ2
  efficacy (% GABA EC3): ns
[5]; [17]
  activity at 10 µM: 218 ± 13%
[6]; 10 nM
  efficacy (% GABA EC3): ns
[6]; 100 nM
  efficacy (% GABA EC3): ns
[6]; [17]
  activity at 1 µM: 177 ± 11%
  activity at 10 µM: 283 ± 7%
[7]; 10 nM
  efficacy (% GABA EC3): ns
[7]; 100 nM
  efficacy (% GABA EC3): ns
[7]
  activity at 1 µM: 192 ± 4%
  activity at 10 µM: 384 ± 24%
[8]; 10 nM
  efficacy (% GABA EC3): ns
[8]; 100 nM
  efficacy (% GABA EC3): ns
[8]; [17]
  activity at 1 µM: 169 ± 23%
  activity at 10 µM: 232 ± 38%
[9]; 1 μM, α4β3γ2
  efficacy (% GABA EC3): ns
[9]; [17]
  activity at 10 µM: 279 ± 81%
[10]
  EC50: > 2 µM
[10]; 10 nM
  efficacy (% GABA EC3): ns
[10]; [17]
  activity at 0.1 µM: 216 ± 44%
  activity at 1 µM: 320 ± 71%
  activity at 10 µM: 480 ± 100%
[11]
  EC50: > 9 µM
[11]; [17]
  activity at 0.01 µM: 192 ± 31%
  activity at 0.1 µM: 330 ± 58%
  activity at 1 µM: 407 ± 83%
  activity at 10 µM: 640 ± 157%
[12]; up to 100 nM
  activity in the mutated receptors: inactive
